The results in this text go back to ChEMBL document CHEMBL5257070, “The Asymmetric Total Synthesis and Configuration Confirmation of Aplysiaenal and Nhatrangin A, Truncated Derivatives of Aplysiatoxin and Oscillatoxin” (J Nat Prod, 2023).

For one test, the system named is L1210. Nature of the test: Cytotoxicity against mouse L1210 cells incubated for 72 hrs by WST-8 method. The format is functional, cell-based. The following applies: L1210, 72 h. A general note: Tetrazolium assays rely on reduction of a dye to a coloured formazan, in cell work by metabolically active cells.
In another test the test system is HCT-116. Nature of the test: Cytotoxicity against human HCT-116 cells incubated for 72 hrs by MTT assay. Conditions: HCT-116, 72 h. Type of test: functional, cell-based.

Bounds are passed on as bounds.

A word on the IC50: it is the concentration that inhibits the measured activity by half. In turn, `CO[C@@H](CC[C@H](C)[C@H]1O[C@@]2(C=C[C@@H]1C)[C@H](C(=O)O[C@H]1COC(=O)C1)C(=O)[C@H](C)CC2(C)C)c1cccc(O)c1` showed a concentration for half-maximal inhibition (IC50) in the test with L1210 of 48 µM.

`CO[C@@H](CC[C@H](C)[C@@H](OC(=O)C[C@@H](O)[C@@H](C)O)[C@@H](C)C(=O)O)c1cccc(O)c1`: the IC50 with L1210 and in the test on HCT-116 was more than 100 µM throughout.

Take `CO[C@@H](CC[C@H](C)/C=C(\C)C=O)c1cccc(O)c1`: the IC50 was 93 µM in the test with L1210 and more than 100 µM in the test with HCT-116.
